Where a name gives a salt, the structure may show the parent alone.
Legend:
Type in all cases: in vivo
[1] = tested on: ECHCG (Echinochloa crusgalli (L.) Beauv., barnyardgrass); experiment: Example IV postemergence foliar-applied mixtures, general weed control, greenhouse: ECHCG
Procedure: (§1) The treated plants and control plants were placed in a greenhouse as described above and watered by sub-irrigation to prevent wash-off of the test compounds. After approximately 3 weeks, the condition of the test plants as compared with that of the untreated plants was determined visually and scored on a scale of 0 to 100 percent where 0 corresponds to no injury or growth inhibition and 100 corresponds to complete kill.
(§2) Colby's equation was used to determine the herbicidal effects expected from the mixtures (Colby, S. R. 1967. Calculation of the synergistic and antagonistic response of herbicide combinations. Weeds 15:20-22.) .
The following equation was used to calculate the expected activity of mixtures containing two active ingredients, A and B:
A=observed efficacy of active ingredient A at the same concentration as used in the mixture.
B=observed efficacy of active ingredient B at the same concentration as used in the mixture.

[2] = tested on: SETFA (Setaria faberi Herrm., giant foxtail); experiment: Example IV postemergence foliar-applied mixtures, general weed control, greenhouse: SETFA
Procedure: (§3) Seeds or nutlets of the desired test plant species were planted in Sun Gro Metro-Mix® 360 planting mixture, which typically has a pH of 6.0 to 6.8 and an organic matter content of about 30 percent, in plastic pots with a surface area of 84.6 square centimeters (cm^2). […] The plants were grown for 7-31 days (d) in a greenhouse with an approximate 15 hour (h) photoperiod which was maintained at about 23-29° C. during the day and 22-28° C. during the night. Nutrients (Peters Excel® 15-5-15 5-Ca 2-Mg) and water were added on a regular basis and supplemental lighting was provided with overhead metal halide 1000-Watt lamps as necessary. The plants were employed for testing when they reached the first, second, or third true leaf stage.
(§4) Treatments consisted of the acid or the benzyl ester of 4-amino-3-chloro-5-fluoro-6-(4-chloro-2-fluoro-3-methoxy-phenyl)pyridine-2-carboxylic acid (Compound A), each formulated as an SC, and various herbicidal components alone and in combination. Forms of compound A were applied on an acid equivalent basis.
(§5) Other herbicidal components were applied on an acid equivalent or active ingredient basis and included the 5-enolpyruvylshikimate-3-phosphate synthase (EPSPS)-inhibiting herbicide, glyphosate dimethylamine salt, formulated as Durango DMA® and the glutamine synthase (GS)-inhibiting herbicide, glufosinate ammonium, formulated as Ignite® 280.
(§6) For treatments comprised of formulated compounds, measured amounts of compounds were placed individually in 25 mL glass vials and diluted in a volume of 1.25% (v/v) Agri-dex crop oil concentrated to obtain 12× stock solutions. […] Application solutions were prepared by adding an appropriate amount of each stock solution (typically 1 mL) and diluted to the appropriate final concentrations with the addition of 10 mL of an aqueous mixture of 1.25% (v/v) Agri-dex crop oil concentrate so that the final spray solutions contained 1.25% (v/v) Agri-dex crop oil concentrate.
(§7) All stock solutions and applications solutions were visually inspected for compound compatibility prior to application. Compound requirements are based upon a 12 mL application volume at a rate of 187 liters per hectare (L/ha). Formulated compounds were applied to the plant material with an overhead Mandel track sprayer equipped with 8002E nozzles calibrated to deliver 187 L/ha over an application area of 0.503 square meters (m^2) at a spray height of 18 to 20 inches (46 to 50 cm) above the average plant canopy height. Control plants were sprayed in the same manner with the solvent blank.
as §1, §2

[3] = tested on: CYPES (Cyperus esculentus L., yellow nutsedge); experiment: Example IV postemergence foliar-applied mixtures, general weed control, greenhouse: CYPES
Procedure: as §3, §4, §5, §6, §7, §1, §2

[4] = tested on: AMARE (Amaranthus retroflexus L., redroot pigweed); experiment: Example IV postemergence foliar-applied mixtures, general weed control, greenhouse: AMARE (Table 17, species inferred from b27)
Procedure: as §3, §4, §5, §6, §7, §1, §2

[5] = tested on: AVEFA (Avena fatua L., wild oat); experiment: Example III postemergence foliar-applied mixtures, row crop weeds (corn, soybean), greenhouse: AVEFA
Procedure: as §3, with “a soil matrix prepared by mixing a loam or sandy loam soil (e.g., 43 percent silt, 19 percent clay, and 38 percent sand, with” for “Sun Gro Metro-Mix® 360 planting mixture, which typically has”, “about 8.1” for “6.0 to 6.8”, “1.5 percent) and calcareous grit in an 80 to 20 ratio. The soil matrix was contained” for “30 percent,”, “square centimters (cm^2) and a volume of 560 cubic” for “square”, “(cm^3).” for “(cm^2).”
(§8) Treatments consisted of the acid or esters of 4-amino-3-chloro-5-fluoro-6-(4-chloro-2-fluoro-3-methoxy-phenyl)pyridine-2-carboxylic acid (Compound A), each formulated as an
(§9) SC (suspension concentrate), and various herbicidal components alone and in combination. Forms of compound A were applied on an acid equivalent basis.
as §5
(§10) For treatments comprised of formulated compounds, measured amounts of compounds were placed individually in 25 mL glass vials and diluted in a volume of 1.5% (v/v) Agri-dex® crop oil concentrate to obtain 6× stock solutions. […] Application solutions were prepared by adding an appropriate amount of each stock solution (typically 2 mL) and diluted to the appropriate final concentrations with the addition of an aqueous mixture of 1.5% (v/v) crop oil concentrate and water so that the final spray solutions contained 1.25% (v/v) crop oil concentrate.
as §7
as §1, with “2” for “3”
(§11) The following equation was used to calculate the expected activity of mixtures containing two active ingredients, A and B: […]

[6] = tested on: ELEIN (Eleusine indica (L.) Gaertn., goosegrass); experiment: Example III postemergence foliar-applied mixtures, row crop weeds (corn, soybean), greenhouse: ELEIN
Procedure: as §3, with “a soil matrix prepared by mixing a loam or sandy loam soil (e.g., 43 percent silt, 19 percent clay, and 38 percent sand, with” for “Sun Gro Metro-Mix® 360 planting mixture, which typically has”, “about 8.1” for “6.0 to 6.8”, “1.5 percent) and calcareous grit in an 80 to 20 ratio. The soil matrix was contained” for “30 percent,”, “square centimters (cm^2) and a volume of 560 cubic” for “square”, “(cm^3).” for “(cm^2).”
as §8, §9, §5, §10, §7
as §1, with “2” for “3”
as §11

[7] = Compound A Benzyl Ester 8 gae/ha alone
[8] = Compound A Benzyl Ester 2 gae/ha alone, 18 DAA
[9] = Compound A Benzyl Ester 4 gae/ha alone, 18 DAA
[10] = Compound A Benzyl Ester 8 gae/ha alone, 18 DAA
[11] = Compound A Benzyl Ester alone, 2 gae/ha
[12] = Glufosinate ammonium salt 225 gai/ha alone
[13] = glufosinate ammonium alone, 28.25 gae/ha
[14] = glufosinate ammonium alone, 56.5 gae/ha
[15] = Glufosinate ammonium salt 450 gai/ha alone, 18 DAA
[16] = Compound A Acid alone, 7.5 gae/ha
[17] = Compound A Acid alone, 15 gae/ha

COc1c(Cl)ccc(-c2nc(C(=O)OCc3ccccc3)c(Cl)c(N)c2F)c1F [Compound A Benzyl Ester]
Visual Weed Control (%) - 18 DAA ECHCG Obs [1, 7]: 40%
VisualWeed Control (%) - 18 DAA SETFA Obs [2, 8]: 40%
VisualWeed Control (%) - 18 DAA SETFA Obs [2, 9]: 40%
VisualWeed Control (%) - 18 DAA SETFA Obs [2, 10]: 75%
VisualWeed Control (%) - 18 DAA SETFA Obs ([2]; Compound A Benzyl Ester 16 gae/ha alone, 18 DAA): 85%
VisualWeed Control (%) - 18 DAA SETFA Obs ([2]; Compound A Benzyl Ester 32 gae/ha alone, 18 DAA): 90%
VisualWeed Control (%) - 18 DAA SETFA Obs [2, 11]: 40%
VisualWeed Control (%) - 18 DAA SETFA Obs ([2]; Compound A Benzyl Ester alone, 4 gae/ha): 40%
Visual Weed Control (%) - 18 DAA CYPES Obs [3, 8]: 40%
Visual Weed Control (%) - 18 DAA CYPES Obs [3, 9]: 75%
Visual Weed Control (%) - 18 DAA CYPES Obs [3, 10]: 80%
Visual Weed Control (%) - 18 DAA CYPES Obs [3, 11]: 40%
Visual Weed Control (%) - 18 DAA AMARE Obs ([4]; Compound A Benzyl Ester 2 gae/ha alone): 50%
Visual Weed Control (%) - 18 DAA AMARE Obs ([4]; Compound A Benzyl Ester 4 gae/ha alone): 60%
Visual Weed Control (%) - 18 DAA AMARE Obs [4, 7]: 85%
Visual Weed Control (%) - 18 DAA AMARE Obs ([4]; Compound A Benzyl Ester 16 gae/ha alone): 85%
Visual Weed Control (%) - 18 DAA AMARE Obs ([4]; Compound A Benzyl Ester 32 gae/ha alone): 100%

CP(=O)(O)CCC(N)C(=O)O (centres unmarked) [Glufosinate ammonium salt, 2-amino-4-(hydroxymethylphosphinyl)butanoic acid monoammonium salt, reference compound]
Visual Weed Control (%) - 18 DAA ECHCG Obs ([1]; Glufosinate ammonium salt 112.5 gai/ha alone): 0%
Visual Weed Control (%) - 18 DAA ECHCG Obs [1, 12]: 0%
Visual Weed Control (%) - 18 DAA ECHCG Obs ([1]; Glufosinate ammonium salt 450 gai/ha alone): 10%
Visual Weed Control (%) - 16 DAA AVEFA Obs [5, 13]: 0%
Visual Weed Control (%) - 16 DAA AVEFA Obs [5, 14]: 0%
VisualWeed Control (%) - 18 DAA SETFA Obs [2, 15]: 60%
Visual Weed Control (%) - 18 DAA CYPES Obs ([3]; Glufosinate ammonium salt 112.5 gai/ha alone, 18 DAA): 0%
Visual Weed Control (%) - 18 DAA CYPES Obs ([3]; Glufosinate ammonium salt 225 gai/ha alone, 18 DAA): 0%
Visual Weed Control (%) - 18 DAA CYPES Obs [3, 15]: 0%
Visual Weed Control (%) - 18 DAA AMARE Obs [4, 12]: 50%
Visual Weed Control (%) - 16 DAA ELEIN Obs [6, 13]: 0%
Visual Weed Control (%) - 16 DAA ELEIN Obs [6, 14]: 0%
Visual Weed Control (%) - 16 DAA ELEIN Obs ([6]; glufosinate ammonium alone, 113 gae/ha): 10%

COc1c(Cl)ccc(-c2nc(C(=O)O)c(Cl)c(N)c2F)c1F [Compound A Acid, 4-amino-3-chloro-6-(4-chloro-2-fluoro-3-methoxyphenyl)-5-fluoropyridine-2-carboxylic acid]
Visual Weed Control (%) - 16 DAA AVEFA Obs ([5]; Compound A Acid alone, 3.75 gae/ha): 0%
Visual Weed Control (%) - 16 DAA AVEFA Obs [5, 16]: 0%
Visual Weed Control (%) - 16 DAA AVEFA Obs [5, 17]: 10%
Visual Weed Control (%) - 16 DAA ELEIN Obs [6, 16]: 10%
Visual Weed Control (%) - 16 DAA ELEIN Obs [6, 17]: 10%
